Test results as given in PubChem BioAssay (NCI).
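48-hour exposure; five concentrations; linearly interpolated endpoints. TGI: total growth inhibition.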

How the values were obtained:
Test in all cases: NCI tumour cell line growth inhibition, 48 h
786-0 renal = test system: 786-0 renal
A498 renal = test system: A498 renal
A549 NSCLC = test system: A549 NSCLC
ACHN renal = test system: ACHN renal
BT-549 breast = test system: BT-549 breast
CAKI-1 renal = test system: CAKI-1 renal
CCRF-CEM leukemia = test system: CCRF-CEM leukemia
COLO 205 colon = test system: COLO 205 colon
DU-145 prostate = test system: DU-145 prostate
EKVX NSCLC = test system: EKVX NSCLC
HCT-116 colon = test system: HCT-116 colon
HCT-15 colon = test system: HCT-15 colon
HL-60(TB) leukemia = test system: HL-60(TB) leukemia
HOP-62 NSCLC = test system: HOP-62 NSCLC
HS 578T breast = test system: HS 578T breast
HT29 colon = test system: HT29 colon
IGROV1 ovarian = test system: IGROV1 ovarian
K-562 leukemia = test system: K-562 leukemia
KM12 colon = test system: KM12 colon
LOX IMVI melanoma = test system: LOX IMVI melanoma
M14 melanoma = test system: M14 melanoma
MALME-3M melanoma = test system: MALME-3M melanoma
MCF7 breast = test system: MCF7 breast
MDA-MB-231 breast = test system: MDA-MB-231 breast
MDA-MB-435 = test system: MDA-MB-435
MDA-N = test system: MDA-N
MOLT-4 leukemia = test system: MOLT-4 leukemia
NCI-H226 lung = test system: NCI-H226 lung
NCI-H23 lung = test system: NCI-H23 lung
NCI-H460 lung = test system: NCI-H460 lung
NCI-H522 lung = test system: NCI-H522 lung
NCI/ADR-RES ovarian = test system: NCI/ADR-RES ovarian
OVCAR-3 ovarian = test system: OVCAR-3 ovarian
OVCAR-4 ovarian = test system: OVCAR-4 ovarian
OVCAR-5 ovarian = test system: OVCAR-5 ovarian
OVCAR-8 ovarian = test system: OVCAR-8 ovarian
PC-3 prostate = test system: PC-3 prostate
RPMI-8226 leukemia = test system: RPMI-8226 leukemia
RXF 393 renal = test system: RXF 393 renal
SF-268 CNS = test system: SF-268 CNS
SF-295 CNS = test system: SF-295 CNS
SF-539 CNS = test system: SF-539 CNS
SK-MEL-2 melanoma = test system: SK-MEL-2 melanoma
SK-MEL-28 melanoma = test system: SK-MEL-28 melanoma
SK-MEL-5 melanoma = test system: SK-MEL-5 melanoma
SK-OV-3 ovarian = test system: SK-OV-3 ovarian
SN12C renal = test system: SN12C renal
SNB-75 CNS = test system: SNB-75 CNS
SR leukemia = test system: SR leukemia
SW-620 colon = test system: SW-620 colon
T-47D breast = test system: T-47D breast
TK-10 renal = test system: TK-10 renal
U251 CNS = test system: U251 CNS
UACC-257 melanoma = test system: UACC-257 melanoma
UACC-62 melanoma = test system: UACC-62 melanoma
UO-31 renal = test system: UO-31 renal
HCC-2998 colon = test system: HCC-2998 colon
SNB-19 CNS = test system: SNB-19 CNS
HOP-92 NSCLC = test system: HOP-92 NSCLC

Measured: TGI

Cc1ncc([N+](=O)[O-])n1CCN(C)C(=O)CCCn1ccnc1[N+](=O)[O-]
> 100 µM: 786-0 renal | A498 renal | A549 NSCLC | ACHN renal | BT-549 breast | CAKI-1 renal | CCRF-CEM leukemia | COLO 205 colon | DU-145 prostate | EKVX NSCLC | HCT-116 colon | HCT-15 colon | HL-60(TB) leukemia | HOP-62 NSCLC | HS 578T breast | HT29 colon | IGROV1 ovarian | K-562 leukemia | KM12 colon | LOX IMVI melanoma | M14 melanoma | MALME-3M melanoma | MCF7 breast | MDA-MB-231 breast | MDA-MB-435 | MDA-N | MOLT-4 leukemia | NCI-H226 lung | NCI-H23 lung | NCI-H460 lung | NCI-H522 lung | NCI/ADR-RES ovarian | OVCAR-3 ovarian | OVCAR-4 ovarian | OVCAR-5 ovarian | OVCAR-8 ovarian | PC-3 prostate | RPMI-8226 leukemia | RXF 393 renal | SF-268 CNS | SF-295 CNS | SF-539 CNS | SK-MEL-2 melanoma | SK-MEL-28 melanoma | SK-MEL-5 melanoma | SK-OV-3 ovarian | SN12C renal | SNB-75 CNS | SR leukemia | SW-620 colon | T-47D breast | TK-10 renal | U251 CNS | UACC-257 melanoma | UACC-62 melanoma | UO-31 renal

COC(=O)C1CCOC(C)N1C(=O)OC(C)(C)C (centres undefined)
> 100 µM: 786-0 renal | A549 NSCLC | ACHN renal | BT-549 breast | CAKI-1 renal | CCRF-CEM leukemia | COLO 205 colon | DU-145 prostate | EKVX NSCLC | HCC-2998 colon | HCT-116 colon | HCT-15 colon | HL-60(TB) leukemia | HOP-62 NSCLC | HS 578T breast | HT29 colon | IGROV1 ovarian | K-562 leukemia | KM12 colon | LOX IMVI melanoma | M14 melanoma | MALME-3M melanoma | MCF7 breast | MDA-MB-231 breast | MDA-MB-435 | MDA-N | MOLT-4 leukemia | NCI-H226 lung | NCI-H23 lung | NCI-H460 lung | NCI-H522 lung | NCI/ADR-RES ovarian | OVCAR-3 ovarian | OVCAR-4 ovarian | OVCAR-5 ovarian | OVCAR-8 ovarian | PC-3 prostate | RPMI-8226 leukemia | RXF 393 renal | SF-268 CNS | SF-295 CNS | SF-539 CNS | SK-MEL-2 melanoma | SK-MEL-28 melanoma | SK-MEL-5 melanoma | SK-OV-3 ovarian | SN12C renal | SNB-19 CNS | SNB-75 CNS | SR leukemia | SW-620 colon | T-47D breast | TK-10 renal | U251 CNS | UACC-257 melanoma | UACC-62 melanoma | UO-31 renal

Cn1ccc(C(=O)N2CCSC2=S)c(OCc2ccccc2)c1=O
93.6 µM: SR leukemia
> 100 µM: 786-0 renal | A498 renal | A549 NSCLC | ACHN renal | BT-549 breast | CAKI-1 renal | CCRF-CEM leukemia | COLO 205 colon | DU-145 prostate | HCC-2998 colon | HCT-116 colon | HCT-15 colon | HL-60(TB) leukemia | HOP-92 NSCLC | HS 578T breast | HT29 colon | K-562 leukemia | KM12 colon | LOX IMVI melanoma | MALME-3M melanoma | MDA-MB-231 breast | MDA-MB-435 | MDA-N | NCI-H226 lung | NCI-H23 lung | NCI-H460 lung | NCI-H522 lung | NCI/ADR-RES ovarian | OVCAR-4 ovarian | OVCAR-8 ovarian | PC-3 prostate | RPMI-8226 leukemia | SF-268 CNS | SK-MEL-2 melanoma | SK-MEL-28 melanoma | SK-MEL-5 melanoma | SN12C renal | SNB-19 CNS | SNB-75 CNS | SW-620 colon | T-47D breast | TK-10 renal | U251 CNS | UACC-257 melanoma | UACC-62 melanoma | UO-31 renal

N/C(=N\S(=O)(=O)c1cccc2nsnc12)Nc1ccc(Cl)cc1
> 100 µM: 786-0 renal | A549 NSCLC | ACHN renal | BT-549 breast | DU-145 prostate | HCT-116 colon | HCT-15 colon | HOP-62 NSCLC | HT29 colon | IGROV1 ovarian | K-562 leukemia | KM12 colon | M14 melanoma | MCF7 breast | MDA-N | MOLT-4 leukemia | NCI-H226 lung | NCI-H23 lung | NCI/ADR-RES ovarian | OVCAR-3 ovarian | OVCAR-4 ovarian | OVCAR-5 ovarian | OVCAR-8 ovarian | RPMI-8226 leukemia | RXF 393 renal | SF-268 CNS | SF-295 CNS | SF-539 CNS | SK-OV-3 ovarian | SN12C renal | SNB-19 CNS | SNB-75 CNS | SR leukemia | SW-620 colon | T-47D breast | UO-31 renal
85.8 µM: LOX IMVI melanoma
77.1 µM: U251 CNS
67 µM: NCI-H460 lung
40.2 µM: MALME-3M melanoma
63.7 µM: EKVX NSCLC
32.5 µM: UACC-257 melanoma
25.7 µM: NCI-H522 lung
71.8 µM: SK-MEL-28 melanoma
26.3 µM: SK-MEL-2 melanoma
35.2 µM: UACC-62 melanoma
62.8 µM: TK-10 renal
55 µM: PC-3 prostate
78 µM: HL-60(TB) leukemia
31.2 µM: SK-MEL-5 melanoma
75.9 µM: MDA-MB-231 breast
68.9 µM: HS 578T breast
56.5 µM: HOP-92 NSCLC
59.5 µM: A498 renal
